Test results published in the NIST ThermoML archive (doi:10.1021/acs.jced.8b00132).
“And” between values parts separate entries of the source, which are not always exact repeats. Identical values can stand only once.

O=C(C(F)(F)C(F)(F)F)C(F)(C(F)(F)F)C(F)(F)F [dodecafluoro-2-methylpentan-3-one]
Conditions | thermal conductivity
329.25 K, 73 kPa, Gas, hot wire | 0.0137 W/m/K
329.26 K, 72 kPa, Gas, hot wire | 0.01377 W/m/K and 0.01374 W/m/K
329.31 K, 120 kPa, Gas, hot wire | 0.01393 W/m/K
329.32 K, 120 kPa, Gas, hot wire | 0.01375 W/m/K
329.34 K, 27 kPa, Gas, hot wire | 0.01343 W/m/K
329.35 K, 27 kPa, Gas, hot wire | 0.01345 W/m/K
329.36 K, 26 kPa, Gas, hot wire | 0.01404 W/m/K
329.37 K, 26 kPa, Gas, hot wire | 0.01398 W/m/K
329.38 K, 120 kPa, Gas, hot wire | 0.01375 W/m/K
329.39 K, 105 kPa, Gas, hot wire | 0.01386 W/m/K
329.39 K, 120 kPa, Gas, hot wire | 0.01376 W/m/K
329.4 K, 105 kPa, Gas, hot wire | 0.01386 W/m/K
329.42 K, 73 kPa, Gas, hot wire | 0.01371 W/m/K and 0.01373 W/m/K
329.43 K, 72 kPa, Gas, hot wire | 0.01372 W/m/K and 0.01375 W/m/K
329.43 K, 67798 kPa, Liquid, transient hot wire | 0.07589 W/m/K
329.43 K, 67830 kPa, Liquid, transient hot wire | 0.07595 W/m/K
329.47 K, 120 kPa, Gas, hot wire | 0.01394 W/m/K
329.48 K, 120 kPa, Gas, hot wire | 0.01386 W/m/K
329.48 K, 57461 kPa, Liquid, transient hot wire | 0.0733 W/m/K
329.49 K, 57474 kPa, Liquid, transient hot wire | 0.07325 W/m/K
329.5 K, 26 kPa, Gas, hot wire | 0.01349 W/m/K
329.51 K, 27 kPa, Gas, hot wire | 0.01348 W/m/K
329.52 K, 26 kPa, Gas, hot wire | 0.01408 W/m/K
329.53 K, 26 kPa, Gas, hot wire | 0.01404 W/m/K
329.56 K, 46607 kPa, Liquid, transient hot wire | 0.07024 W/m/K
329.56 K, 46614 kPa, Liquid, transient hot wire | 0.07022 W/m/K
329.57 K, 105 kPa, Gas, hot wire | 0.01395 W/m/K and 0.01394 W/m/K
329.57 K, 120 kPa, Gas, hot wire | 0.01381 W/m/K
329.58 K, 120 kPa, Gas, hot wire | 0.01371 W/m/K
329.6 K, 72 kPa, Gas, hot wire | 0.01381 W/m/K
329.6 K, 73 kPa, Gas, hot wire | 0.01369 W/m/K and 0.01372 W/m/K
329.6 K, 67772 kPa, Liquid, transient hot wire | 0.07593 W/m/K
329.6 K, 67790 kPa, Liquid, transient hot wire | 0.07593 W/m/K
329.61 K, 72 kPa, Gas, hot wire | 0.01376 W/m/K
329.63 K, 36730 kPa, Liquid, transient hot wire | 0.06726 W/m/K
329.63 K, 36735 kPa, Liquid, transient hot wire | 0.06721 W/m/K
329.65 K, 120 kPa, Gas, hot wire | 0.01392 W/m/K
329.66 K, 119 kPa, Gas, hot wire | 0.0139 W/m/K
329.66 K, 57448 kPa, Liquid, transient hot wire | 0.07322 W/m/K
329.68 K, 27 kPa, Gas, hot wire | 0.01357 W/m/K
329.68 K, 27945 kPa, Liquid, transient hot wire | 0.06427 W/m/K
329.68 K, 27946 kPa, Liquid, transient hot wire | 0.0643 W/m/K
329.68 K, 57441 kPa, Liquid, transient hot wire | 0.07323 W/m/K
329.69 K, 27 kPa, Gas, hot wire | 0.0135 W/m/K
329.7 K, 26 kPa, Gas, hot wire | 0.01403 W/m/K and 0.01401 W/m/K
329.74 K, 20516 kPa, Liquid, transient hot wire | 0.0619 W/m/K
329.74 K, 20518 kPa, Liquid, transient hot wire | 0.0616 W/m/K
329.74 K, 46598 kPa, Liquid, transient hot wire | 0.07033 W/m/K
329.74 K, 46602 kPa, Liquid, transient hot wire | 0.07022 W/m/K
329.75 K, 104 kPa, Gas, hot wire | 0.01402 W/m/K
329.76 K, 104 kPa, Gas, hot wire | 0.01399 W/m/K
329.77 K, 120 kPa, Gas, hot wire | 0.01378 W/m/K
329.79 K, 73 kPa, Gas, hot wire | 0.01373 W/m/K
329.79 K, 120 kPa, Gas, hot wire | 0.01373 W/m/K
329.8 K, 14125 kPa, Liquid, transient hot wire | 0.05898 W/m/K
329.8 K, 14126 kPa, Liquid, transient hot wire | 0.05901 W/m/K
329.8 K, 67755 kPa, Liquid, transient hot wire | 0.07593 W/m/K
329.81 K, 67741 kPa, Liquid, transient hot wire | 0.07589 W/m/K
329.82 K, 36726 kPa, Liquid, transient hot wire | 0.06718 W/m/K
329.82 K, 36730 kPa, Liquid, transient hot wire | 0.0673 W/m/K
329.83 K, 118 kPa, Gas, hot wire | 0.01407 W/m/K
329.84 K, 118 kPa, Gas, hot wire | 0.01403 W/m/K
329.85 K, 73 kPa, Gas, hot wire | 0.01336 W/m/K
329.86 K, 72 kPa, Gas, hot wire | 0.01334 W/m/K
329.86 K, 8619 kPa, Liquid, transient hot wire | 0.05649 W/m/K
329.86 K, 57414 kPa, Liquid, transient hot wire | 0.07321 W/m/K
329.86 K, 57423 kPa, Liquid, transient hot wire | 0.07327 W/m/K
329.87 K, 27 kPa, Gas, hot wire | 0.01359 W/m/K and 0.01357 W/m/K
329.87 K, 8621 kPa, Liquid, transient hot wire | 0.05651 W/m/K
329.87 K, 27941 kPa, Liquid, transient hot wire | 0.06427 W/m/K
329.88 K, 27942 kPa, Liquid, transient hot wire | 0.06429 W/m/K
329.91 K, 4467 kPa, Liquid, transient hot wire | 0.05452 W/m/K
329.91 K, 4470 kPa, Liquid, transient hot wire | 0.05445 W/m/K
329.94 K, 26 kPa, Gas, hot wire | 0.01354 W/m/K and 0.01352 W/m/K
329.94 K, 20524 kPa, Liquid, transient hot wire | 0.06153 W/m/K
329.94 K, 46588 kPa, Liquid, transient hot wire | 0.07021 W/m/K
329.94 K, 46601 kPa, Liquid, transient hot wire | 0.07018 W/m/K
329.95 K, 20523 kPa, Liquid, transient hot wire | 0.06156 W/m/K
329.97 K, 120 kPa, Gas, hot wire | 0.01385 W/m/K
329.97 K, 177 kPa, Liquid, transient hot wire | 0.05208 W/m/K
329.97 K, 178 kPa, Liquid, transient hot wire | 0.05208 W/m/K
329.99 K, 120 kPa, Gas, hot wire | 0.01382 W/m/K
329.99 K, 180 kPa, Liquid, transient hot wire | 0.05206 W/m/K
329.99 K, 67709 kPa, Liquid, transient hot wire | 0.0759 W/m/K
